Legend:
[1] = system: Male Sprague-Dawley rats; assay: Rat elevated zero-maze study with racemic MDE, R-MDE, S-MDE and chlordiazepoxide; conditions: for Percentage of time spent in the open arms (% TO), significance vs placebo / Percentage of time spent in the open arms (% TO), trend: 2.5-30 mg/kg ip
Method: A reduction in the amount of activity on the open areas is considered to reflect an increase in anxiety. The ethologically-based behavior, stretched attend postures (SAP) from closed to open quadrants, is assessed as an index of anxiety. […] Animals
Male Sprague-Dawley 200-250 g (Envigo UK) rats were used. Animals were group-housed (5 per cage; cage size: 40×40×20 cm) in a temperature-controlled environment (22±2° C.), under a 12 h light-dark cycle (lights on: 08:00 hours) for one week prior to testing. Food and water were freely available. Number of animals per group=5.
The elevated 0-maze comprises a black Perspex annular platform (105 cm diameter, 10 cm width) elevated to 65 cm above ground level, divided equally into four quadrants. Two opposite quadrants are enclosed by clear red Perspex walls (27 cm high) on both the inner and outer edges of the platform, while the remaining two opposite quadrants are surrounded only by a Perspex “lip” (1 cm high) which serves as a tactile guide to animals on these open areas.
Subjects were weighed and tail marked before being injected. After a specified pretreatment time, subjects were placed in a closed quadrant and a 5-min test period were recorded on videotape for subsequent analysis. The maze was cleaned with 5% methanol/water solution and dried thoroughly between test sessions. Behavioural measures comprise percentage time spent on the open areas (% TO) and frequency of stretched attend postures (SAP) from closed to open quadrants. Animals are scored as being in the open area when all four paws were in an open quadrant and in the closed area only when all four paws have passed over the open-closed divide.
Thirty min later at T=0, rats were individually placed in a closed arm of the zero-maze and behavior was assessed by a “blind” observer using remote video monitoring over the subsequent 5 min. The animal was then removed and the maze carefully wiped with 5% methanol/water solution before the next test was begun.
Thirty min later at T=0, rats were individually placed in a closed arm of the zero-maze and behavior assessed by a “blind” observer using remote video monitoring over the subsequent 5 min. The animal was then removed and the maze carefully wiped with 5% methanol/water solution before the next test was begun.

[2] = system: participants diagnosed with at least moderate post-traumatic stress disorder (PTSD); assay: Double-blind, randomized, placebo-controlled clinical trial of MDE-assisted psychotherapy in PTSD; type: in vivo, human; conditions: for Daytime sleepiness (ESS) / Clinician-rated functional impairment score (SDS) / Depression (HAM-D) / Change in CAPS-5 assessment: Study Conclusion; for Clinician-rated functional impairment score (SDS) / Depression (HAM-D) / Change in CAPS-5 assessment: vs placebo; for Change in CAPS-5 assessment: hydrochloride salt with psychotherapy; for Total dosage of drug to achieve significant mean reduction in CAPS-5: vs racemic MDE-treated subgroup
Method: A multicenter, randomized, double-blind, placebo-controlled trial is conducted to assess the efficacy and safety of MDE-assisted psychotherapy versus psychotherapy with placebo control in participants diagnosed with at least moderate post-traumatic stress disorder (PTSD).
This multicenter, randomized, double-blind, placebo-controlled trial is conducted at various sites in the United States with IRB approval from each study site. A flexible dose of MDE hydrochloride salt or placebo, followed by a supplemental half-dose unless contraindicated by patient's previous response or medical history, is also administered during the Treatment Period with psychotherapy in at least 3 blinded monthly Experimental Sessions. The Supplemental Dose extends the duration of drug effects on the participants during an Experimental Session. MDE test groups are further subdivided into specific groups receiving only racemic MDE hydrochloride salt, S-MDE hydrochloride salt, or R-MDE hydrochloride salt. An optional Risk Evaluation and Mitigation Strategy (REMS) Protocol may be implemented for the racemic MDE, R-MDE, and placebo-groups. The Treatment Period lasts for approximately 12 weeks. During the Treatment Period, each Experimental Session is followed by three Intervening Sessions of non-drug psychotherapy. Each Experimental Session involves an overnight stay. The Primary Outcome measure, the change in Clinician Administered PTSD Scale for DSM-5 (CAPS-5), is determined by a blinded Independent Rater (IR) pool multiple times throughout the study. The study consists of separate periods for each participant. Initially, prospective participants undergo a Screening Period involving an initial eligibility assessment, a medical history intake, informed consent, and enrollment of eligible participants. Next, a Preparation Period is undertaken for enrolled participants involving medication tapering and clinical baseline assessments to confirm each participant meets enrollment criteria. As part of the Preparation Period, a detailed assessment of co-morbidities to PTSD is recorded. Participants may remain on prescribed courses of selective serotonin reuptake inhibitor (SSRI) or serotonin and norepinephrine reuptake inhibitor (SNRI) treatment. Dosages and/or frequency of administration of a prescribed SSRI or SNRI may be adjusted to fit within study parameters. Participants may be required to taper a prescribed course of medication in order to maintain eligibility within the study. The Treatment Period consists of three monthly Experimental Sessions and associated Intervening Sessions of integrative behavioral psychotherapy. The Treatment Period lasts approximately 12 weeks. Following the Treatment Period is a Follow-up Period and Study Conclusion. During the Follow-up Period and Study Conclusion, participants complete 4 weeks with no study visits, followed by a Study Conclusion visit.
This study compares the effects of three blinded Experimental Sessions of psychotherapy in combination with flexible doses of MDE or placebo administered as described below. Non-drug preparatory and intervening psychotherapy sessions are also included. Patient's weight is determined for dosage calculation. Initial dose is 100 mg unless this will result in a dosage of less than 1.5 mg/kg of patient weight. Initial dose thereby adjusted upward in 25 mg increments to deliver the lowest dose possible of at least 1.5 mg/kg of patient weight. Initial dose for Experimental Session 2 and 3 is cumulative dose calculated by adding the initial dose plus REMS protocol dose used the previous Experimental Session for each patient.
Randomization occurs prior to the initiation of Experimental Session 1. Each participant is provided the next randomized number in a sequence by a blinded study monitor. Participants are then randomized, according to a computer-generated randomization schedule, 1:1:1:1 to racemic MDE, S-MDE, R-MDE, or placebo. […]

[3] = Dynamic vapor sorption (DVS) analysis with post-DVS XRPD; type: physicochemical
Method: DVS analysis was carried out using a TA Instruments Q5000 Dynamic Vapor Sorption analyzer. The instrument was calibrated with standard weights and a sodium bromide standard for humidity. Approximately 5-25 mg of sample was loaded into a metal-coated quartz pan for analysis. The sample was analyzed at 25° C. with a maximum equilibration time of one hour in 10% relative humidity (RH) steps from 5 to 95% RH (adsorption cycle) and from 95 to 5% RH (desorption cycle). The movement from one step to the next occurred either after satisfying the equilibrium criterion of 0.01% weight change or, if the equilibrium criterion was not met, after one hour. The percent weight change values were calculated using Microsoft Excel®.

[4] = highest dose, ip, 30 min before 5-min test

SMILES | Frequency of stretched attend postures (SAP) ([1]; 5 mg/kg ip) | Frequency of stretched attend postures (SAP) ([1]; 10 mg/kg ip) | Frequency of stretched attend postures (SAP) ([1]; 15 mg/kg ip) | Percentage of time spent in the open arms (% TO) ([1]; 15 mg/kg ip) | Frequency of stretched attend postures (SAP) ([1]; 20 mg/kg ip) | Percentage of time spent in the open arms (% TO), significance vs placebo [1] | Frequency of stretched attend postures (SAP) ([1]; any dose vs placebo) | Frequency of stretched attend postures (SAP) [1, 4] | Daytime sleepiness (ESS) [2] | Clinician-rated functional impairment score (SDS) [2] | Depression (HAM-D) [2] | Change in CAPS-5 assessment [2] | Adverse anxiogenic incidents ([2]; vs placebo-treated controls) | Total dosage of drug to achieve significant mean reduction in CAPS-5 [2] | Frequency of stretched attend postures (SAP) ([1]; 2.5 mg/kg ip) | Frequency of stretched attend postures (SAP) ([1]; 30 mg/kg ip) | Percentage of time spent in the open arms (% TO), trend [1] | Hygroscopicity by DVS ([3]; 25° C., 5 to 95% RH, listed as MBDB Maleate Form 1) | DVS weight gain ([3]; at 95% RH) | Post-DVS XRPD (form change) ([3]; solids after DVS analysis)
CCN[C@@H](C)Cc1ccc2c(c1)OCO2 [S-MDE, (S)—N-ethyl-3,4-methylenedioxyamphetamine] | significantly decreased the number of SAPs | significantly decreased the number of SAPs | significantly decreased the number of SAPs | large numerical increase in time in the open arms | significantly decreased the number of SAPs | did not show significant changes when compared to placebo | did not increase the number of SAPs beyond placebo at any dose | decreased the frequency of SAPs as effectively as the benzodiazepine chlordiazepoxide | significant improvement in lessening daytime sleepiness | significant improvement in clinician-rated functional impairment score | significant improvement depression | significant mean reduction in CAPS-5 assessment compared to the placebo group | without a significant increase in adverse anxiogenic incidents | lower total dosage of drug compared to the racemic MDE-treated subgroup | – | – | – | – | – | –
CCN[C@H](C)Cc1ccc2c(c1)OCO2 [R-MDE, (R)—N-ethyl-3,4-methylenedioxyamphetamine] | increase in SAPs at the 5 mg/kg dose range as well which trended toward significance | not significantly different from placebo | not significantly different from placebo | – | – | did not show significant changes when compared to placebo | – | decreased the frequency of SAPs as effectively as the benzodiazepine chlordiazepoxide | significant improvement in lessening daytime sleepiness | significant improvement in clinician-rated functional impairment score | significant improvement depression | significant mean reduction in CAPS-5 assessment compared to the placebo group | – | lower total dosage of drug compared to the racemic MDE-treated subgroup | increase in the number of SAPs at the 2.5 mg/kg dose which trended towards significance | significant reduction in SAPs | trended towards reduced time in the open arms | – | – | –
CCNC(C)Cc1ccc2c(c1)OCO2 (racemic) [racemic MDE, N-ethyl-3,4-methylenedioxyamphetamine] | did not show any difference from placebo | dose dependent decrease in SAPs and a significant anxiolytic effect | dose dependent decrease in SAPs and a significant anxiolytic effect | – | – | did not show significant changes when compared to placebo | – | decreased the frequency of SAPs as effectively as the benzodiazepine chlordiazepoxide | significant improvement in lessening daytime sleepiness | significant improvement in clinician-rated functional impairment score | significant improvement depression | significant mean reduction in CAPS-5 assessment compared to the placebo group | – | – | significant increase in SAPs | dose dependent decrease in SAPs and a significant anxiolytic effect | trended towards reduced time in the open arms | – | – | –
CCC(Cc1ccc2c(c1)OCO2)NC.O=C(O)/C=C\C(=O)O (stereo not drawn) [MBDB maleate Form 1] | – | – | – | – | – | – | – | – | – | – | – | – | – | – | – | – | – | slightly hygroscopic | 0.6% | no form change
